Test results reported in ChEMBL document CHEMBL5241082, “Discovery and Characterization of Benzimidazole Derivative XY123 as a Potent, Selective, and Orally Available RORγ Inverse Agonist” (J Med Chem, 2021).

How the values were obtained:
in vitro [1] = details: rat, liver microsomes
in vitro [2] = details: human, liver microsomes
in vivo = details: Sprague-Dawley, rat, iv, 5 mg/kg

| Structure (SMILES) | half-life at 1 µM (in vitro [1]) | half-life at 1 µM (in vitro [2]) | clearance at 24 h (in vivo) |
| --- | --- | --- | --- |
| CCS(=O)(=O)c1ccc(CC(=O)Nc2ccc(-c3nc4ccc(C(F)(F)F)cc4n3[C@H](C)c3ccc(F)cc3)cc2)cc1 | 0.373 h | 0.0505 h | 3 mL/min/kg |
| CCS(=O)(=O)c1ccc(CC(=O)Nc2ccc(-c3nc4ccc(C(F)(F)F)cc4n3[C@@H](C)c3ccc(F)cc3)cc2)cc1 | > 2 h | > 2 h | 3.33 mL/min/kg |
| O=C(c1ccc(F)cc1)C1CCN(CCn2c(=O)[nH]c3ccccc3c2=O)CC1 [KETANSERIN] | > 2 h | > 2 h |  |
